Patent US8138119B2, “Alkoxyalkyl spirocyclic tetramic acids and tetronic acids” (Bayer Cropscience AG, priority 2005, dated 2012)

Legend:
[1] = tested on: cereal; test: Profiling test, herbicidal post-emergence action with safener: container trials with cereal in a greenhouse, Mefenpyr 1 day prior to herbicide application; format: in vivo; details: without safener
Method: Seeds of monocotyledonous and dicotyledonous weed and crop plants are placed in sandy loam soil in wood fibre pots or in plastic pots, covered with soil and cultivated in a greenhouse, during the vegetation period also outdoors outside of the greenhouse, under good growth conditions. 2-3 weeks after sowing, the test plants are treated at the one- to three-leaf stage. The test compounds, formulated as wettable powders (WP) or liquid (EC), are, in various dosages with a water application rate of 300 l/ha (converted), with wetting agent (0.2 to 0.3%) added, sprayed onto the plants and the surface of the soil. […]
(§1) If it is additionally to be tested as to whether safeners can improve the plant compatibility of test substances in the case of crop plants, the following options are used for applying the safener: • seeds of the crop plants are, before sowing, dressed with the safener substance (the amount of safener stated in percent, based on the weight of the seed) • before the application of the test substances, the proper plants are sprayed with the safener at a certain application rate per hectare (usually 1 day before the application of the test substances) • the safener is applied together with the test substance as a tank mix (the amount of safener stated in g/ha or as a ratio, based on the herbicide).
(§2) By comparing the effect of the test substances on crop plants without or with safener treatment, it is possible to assess the effect of the safener substance.

[2] = tested on: maize; test: Profiling test, herbicidal pre-emergence action with safener: container trials with maize in the greenhouse, Ex. II-e-5 1 day prior to herbicide application; format: in vivo; details: 28 days after application, without safener
Method: Seeds of monocotyledonous and dicotyledonous weed and crop plants are placed in sandy loam soil in wood fibre pots or in plastic pots and covered with soil. The pots are watered slightly, and the soil surface is then treated with various dosages of the test compounds, formulated as wettable powders (WP) or liquid (EC), at a water application rate of 300 l/ha (converted). The pots with the plants are cultivated in a greenhouse, during the vegetation period also outdoors outside of the greenhouse, under good growth conditions. 3-4 weeks after sowing and the treatment of the pots, the activity of the preparations is rated visually in comparison to untreated controls (herbicidal activity in percent (%): 100% activity=the plants have died, 0% activity=like control plants).
as §1, with “pots of crop” for “proper”
as §2

[3] = Determination of the log P values by HPLC on a reversed-phase column (C18); format: physicochemical
Method: The log P values given in the table were determined in accordance with EEC Directive 79/831 Annex V.A8 by HPLC (High Performance Liquid Chromatography) on a reversed-phase column (C18). Temperature: 43° C.
Mobile phases for the determination in the acidic range (pH 2.3): 0.1% aqueous phosphoric acid, acetonitrile; linear gradient from 10% acetonitrile to 90% acetonitrile
Calibration was carried out using unbranched alkan-2-ones (with 3 to 16 carbon atoms) whose log P values are known (determination of the log P values by the retention times using linear interpolation between two successive alkanones).

[4] = 28 days after application, 12.5 g of a.i./ha
[5] = 28 days after application, 25 g of a.i./ha
[6] = 28 days after application, 11 g of a.i./ha
[7] = 28 days after application, 23 g of a.i./ha
[8] = 28 days after application, 46 g of a.i./ha
[9] = 28 days after application, 91 g of a.i./ha
[10] = compounds of the formula (III), cis/trans isomer mixture, first value of the cell
[11] = compounds of the formula (III), cis/trans isomer mixture, second value of the cell
[12] = compounds of the formula (I-2-a), m.p. ° C./log P
[13] = HPLC reversed-phase column (C18), acidic range (pH 2.3), 43° C.

SMILES | log P [3, 10] | log P [3, 11] | other results
CCc1cc(C)cc(Br)c1C1=C(O)C2(CCC(COC)CC2)NC1=O (single isomer, unassigned) [Example I-1-a-3] | – | – | Summer barley observed (%) [1, 4]: 20%; Summer barley observed (%) [1, 5]: 60%; Summer wheat observed (%) ([1]; 10 days after application, 12.5 g of a.i./ha): 20%; Summer wheat observed (%) ([1]; 10 days after application, 25 g of a.i./ha): 40%
CCc1cc(Cl)cc(OC)c1C1=C(O)C2(CCC(COC)CC2)NC1=O (single isomer, unassigned) [Example I-1-a-4] | – | – | Maize - Arsenal observed (%) ([2]; 12.5 g of a.i./ha): 40%; Maize - Arsenal observed (%) ([2]; 25 g of a.i./ha): 65%; Summer barley observed (%) [1, 5]: 50%
CCOC(=O)OC1=C(c2c(C)cc(C)cc2C)C(=O)NC12CCCC(COC)C2 (single isomer, unassigned) [Example I-1-c-9] | – | – | Maize - Cecilia observed (%) ([2]; 100 g of a.i./ha): 50%
CCCOCC1CCCC2(C1)NC(=O)C(c1c(Br)cc(C)cc1CC)=C2O (single isomer, unassigned) [Example I-1-a-12] | – | – | Summer barley observed (%) [1, 6]: 10%; Summer barley observed (%) [1, 7]: 20%; Summer barley observed (%) [1, 8]: 30%; Summer barley observed (%) [1, 9]: 60%; Summer wheat observed (%) [1, 6]: 10%; Summer wheat observed (%) [1, 7]: 15%; Summer wheat observed (%) [1, 8]: 20%; Summer wheat observed (%) [1, 9]: 30%
CCOC(=O)C1(OC(=O)Cc2c(C)cc(C)cc2C)CCCC(COC)C1 (mixture of isomers) [III-6] | 4.85 | 4.94 | –
CCc1cc(Cl)cc(OC)c1C1=C(OC(=O)COC)C2(CCCC(COC)C2)NC1=O (single isomer, unassigned) [Example I-1-b-6] | – | – | Summer barley observed (%) [1, 4]: 70%
CCOC(=O)OC1=C(c2c(Br)cc(C)cc2CC)C(=O)NC12CCC(COC)CC2 (single isomer, unassigned) [Example I-1-c-6] | – | – | Maize - Cecilia observed (%) ([2]; 12.5 g of a.i./ha): 60%
CCOC(=O)C1(OC(=O)Cc2c(C)cc(Cl)cc2C)CCCC(CCOC)C1 (mixture of isomers) [III-20] | 5.00 | 5.11 | –
CCc1cc(Br)cc(CC)c1C1=C(O)C2(CCC(COC)CC2)OC1=O (stereo not shown) [Example I-2-a-13] | – | – | log P [3, 12]: oil/3.38
CCOC(=O)C1(OC(=O)Cc2c(C)cc(Cl)cc2C)CCCC(COC)C1 (mixture of isomers) [III-4] | 4.82 | 4.93 | –
COCCC1CCCC2(C1)OC(=O)C(c1c(C)cc(C)cc1C)=C2O (stereo not shown) [Example I-2-a-22] | – | – | log P [3, 12]: oil/2.94
CCOC(=O)C1(OC(=O)Cc2c(C)cc(Br)cc2C)CCCC(CCOC)C1 (mixture of isomers) [III-19] | 5.13 | 5.26 | –
CCOC(=O)C1(OC(=O)Cc2cc(C)c(-c3ccc(Cl)cc3)cc2C)CCC(COC)CC1 (mixture of isomers) [III-15] | 5.90 | 5.98 | –
COCCC1CCCC2(C1)OC(=O)C(c1cc(-c3ccc(Cl)cc3)ccc1C)=C2O (stereo not shown) [Example I-2-a-18] | – | – | log P [3, 12]: oil/3.75
CCOC(=O)C1(OC(=O)Cc2c(CC)cc(Br)cc2CC)CCC(COC)CC1 (mixture of isomers) [III-13] | 5.52 | 5.65 | –
CCOC(=O)C1(OC(=O)Cc2c(CC)cc(C)cc2CC)CCCC(CCOC)C1 (mixture of isomers) [III-24] | 5.56 | 5.66 | –
CCOC(=O)OC1=C(c2c(CC)cc(Cl)cc2OC)C(=O)NC12CCC(COC)CC2 (single isomer, unassigned) [Example I-1-c-7] | – | – | Maize - Arsenal observed (%) ([2]; 25 g of a.i./ha): 60%
CCOC(=O)C1(OC(=O)Cc2cc(C)c(C)cc2C)CCC(CCOC)CC1 (mixture of isomers) [III-31] | 5.00 | 5.09 | –
CCOC(=O)C1(OC(=O)Cc2c(C)cc(Br)cc2C)CCC(CCOC)CC1 (mixture of isomers) [III-29] | 5.13 | 5.29 | –
CCOC(=O)C1(OC(=O)Cc2c(CC)cc(C)cc2CC)CCC(COC)CC1 (mixture of isomers) [III-14] | 5.39 | 5.51 | –
COCCC1CCCC2(C1)OC(=O)C(c1c(C)cc(Br)cc1C)=C2O (stereo not shown) [Example I-2-a-19] | – | – | log P [3, 12]: oil/3.13
CCOC(=O)OC1=C(c2c(CC)cc(C)cc2CC)C(=O)OC12CCCC(CCOC)C2 (stereo not shown) [Example I-2-c-3] | – | – | log P [3, 13]: 4.97
CCOC(=O)C1(OC(=O)Cc2c(C)ccc(-c3ccc(Cl)cc3)c2C)CCC(COC)CC1 (mixture of isomers) [III-17] | 5.86 | 5.96 | –
CCOC(=O)C1(OC(=O)Cc2cc(C)c(C)cc2C)CCCC(COC)C1 (mixture of isomers) [III-5] | 4.85 | 4.93 | –
CCc1cc(C)cc(Br)c1C1=C(O)C2(CCCC(COC)C2)NC1=O (single isomer, unassigned) [Example I-1-a-8] | – | – | Summer wheat observed (%) [1, 4]: 90%; Summer wheat observed (%) [1, 5]: 95%
CCOC(=O)C1(OC(=O)Cc2c(C)cc(Cl)cc2C)CCC(COC)CC1 (mixture of isomers) [III-10] | 4.76 | 4.90 | –
CCOC(=O)OC1=C(c2cc(-c3ccc(Cl)cc3)ccc2C)C(=O)OC12CCC(COC)CC2 (stereo not shown) [Example I-2-c-2] | – | – | log P [3, 13]: 4.95
CCOC(=O)C1(OC(=O)Cc2cc(-c3ccc(Cl)cc3)ccc2Cl)CCC(CCOC)CC1 (mixture of isomers) [III-35] | 5.70 | 5.85 | –
